The supplement of paper PMC10307832

Tests used:
Experiment in all cases: relative viability (nuclei count vs DMSO), 5 days (fraction); higher = more cells survive
[1] = tested on: COR-L 105
How it was run: (§1)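 Lung cancer cell lines were pin-tool dosed in 1536-well plates on the day after seeding, with either a lone drug or a fixed anchor-drug dose plus five library-drug doses (not always all listed) in √10 steps. Nuclei were counted on 4× images after 5 days. Relative viability is the ratio of treated-well to vehicle-well nuclei counts, with each value a median of duplicate plates.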

[2] = tested on: COR-L23
How it was run: as §1

[3] = tested on: HARA
How it was run: as §1

[4] = tested on: HCC-15
How it was run: as §1

[5] = tested on: HOP-62
How it was run: as §1

[6] = tested on: NCI-H1355
How it was run: as §1

[7] = tested on: NCI-H1395
How it was run: as §1

[8] = tested on: NCI-H1734
How it was run: as §1

[9] = tested on: NCI-H1755
How it was run: as §1

[10] = tested on: NCI-H1793
How it was run: as §1

[11] = tested on: NCI-H1993
How it was run: as §1

[12] = tested on: NCI-H2009
How it was run: as §1

[13] = tested on: NCI-H2170
How it was run: as §1

[14] = tested on: NCI-H2228
How it was run: as §1

[15] = tested on: NCI-H2347
How it was run: as §1

[16] = tested on: NCI-H358
How it was run: as §1

[17] = tested on: NCI-H522
How it was run: as §1

[18] = tested on: NCI-H647
How it was run: as §1

[19] = tested on: NCI-H838
How it was run: as §1

[20] = tested on: SK-MES-1
How it was run: as §1

[21] = tested on: UMC-11
How it was run: as §1

Compound Cc1sc2c(c1C)C(c1ccc(Cl)cc1)=N[C@@H](CC(=O)OC(C)(C)C)c1nnc(C)n1-2 [JQ1] + O=C(CCCCCCC(=O)Nc1ccccc1)NO [Vorinostat] (partner 1 µM) has a relative viability ([1]; first compound 0.04 µM) of 0.743, a relative viability ([1]; first compound 0.1265 µM) of 0.773 and a relative viability ([1]; first compound 0.4 µM) of 0.621. For the same compound, the relative viability ([1]; first compound 1.265 µM) was 0.338, the relative viability ([1]; first compound 4 µM) was 0.338 and the relative viability ([2]; first compound 0.04 µM) was 0.516. For the same compound, the relative viability ([2]; first compound 0.1265 µM) was 0.327, the relative viability ([2]; first compound 0.4 µM) was 0.401 and the relative viability ([2]; first compound 1.265 µM) was 0.269. The relative viability ([2]; first compound 4 µM) was 0.207, the relative viability ([3]; first compound 0.04 µM) was 0.464 and the relative viability ([3]; first compound 0.1265 µM) was 0.514. It also gave a relative viability ([3]; first compound 0.4 µM) of 0.396, a relative viability ([3]; first compound 1.265 µM) of 0.347 and a relative viability ([3]; first compound 4 µM) of 0.301. The relative viability ([4]; first compound 0.04 µM) was 0.804, the relative viability ([4]; first compound 0.1265 µM) was 0.705 and the relative viability ([4]; first compound 0.4 µM) was 0.7. It also gave a relative viability ([4]; first compound 1.265 µM) of 0.424, a relative viability ([4]; first compound 4 µM) of 0.271 and a relative viability ([5]; first compound 0.04 µM) of 0.641. It also gave a relative viability ([5]; first compound 0.1265 µM) of 0.553, a relative viability ([5]; first compound 0.4 µM) of 0.305 and a relative viability ([5]; first compound 1.265 µM) of 0.12. The relative viability ([5]; first compound 4 µM) was 0.0858, the relative viability ([6]; first compound 0.04 µM) was 0.663 and the relative viability ([6]; first compound 0.1265 µM) was 0.712. The relative viability ([6]; first compound 0.4 µM) was 0.541, the relative viability ([6]; first compound 1.265 µM) was 0.401 and the relative viability ([6]; first compound 4 µM) was 0.281. It also gave a relative viability ([7]; first compound 0.04 µM) of 0.662, a relative viability ([7]; first compound 0.1265 µM) of 0.619 and a relative viability ([7]; first compound 0.4 µM) of 0.694. It also gave a relative viability ([7]; first compound 1.265 µM) of 0.479, a relative viability ([7]; first compound 4 µM) of 0.473 and a relative viability ([8]; first compound 0.04 µM) of 0.802. It also gave a relative viability ([8]; first compound 0.1265 µM) of 0.665, a relative viability ([8]; first compound 0.4 µM) of 0.712 and a relative viability ([8]; first compound 1.265 µM) of 0.334. It also gave a relative viability ([8]; first compound 4 µM) of 0.358, a relative viability ([9]; first compound 0.04 µM) of 0.822 and a relative viability ([9]; first compound 0.1265 µM) of 0.579. The relative viability ([9]; first compound 0.4 µM) was 0.693, the relative viability ([9]; first compound 1.265 µM) was 0.651 and the relative viability ([9]; first compound 4 µM) was 0.552. For the same compound, the relative viability ([10]; first compound 0.04 µM) was 0.722, the relative viability ([10]; first compound 0.1265 µM) was 0.853 and the relative viability ([10]; first compound 0.4 µM) was 0.664. For the same compound, the relative viability ([10]; first compound 1.265 µM) was 0.548, the relative viability ([10]; first compound 4 µM) was 0.508 and the relative viability ([11]; first compound 0.04 µM) was 0.851. For the same compound, the relative viability ([11]; first compound 0.1265 µM) was 0.785, the relative viability ([11]; first compound 0.4 µM) was 0.613 and the relative viability ([11]; first compound 1.265 µM) was 0.388. The relative viability ([11]; first compound 4 µM) was 0.362, the relative viability ([12]; first compound 0.04 µM) was 0.701 and the relative viability ([12]; first compound 0.1265 µM) was 0.444. The relative viability ([12]; first compound 0.4 µM) was 0.429, the relative viability ([12]; first compound 1.265 µM) was 0.264 and the relative viability ([12]; first compound 4 µM) was 0.201. For the same compound, the relative viability ([13]; first compound 0.04 µM) was 0.866, the relative viability ([13]; first compound 0.1265 µM) was 0.609 and the relative viability ([13]; first compound 0.4 µM) was 0.513. The relative viability ([13]; first compound 1.265 µM) was 0.472, the relative viability ([13]; first compound 4 µM) was 0.243 and the relative viability ([14]; first compound 0.04 µM) was 0.605. For the same compound, the relative viability ([14]; first compound 0.1265 µM) was 0.826, the relative viability ([14]; first compound 0.4 µM) was 0.377 and the relative viability ([14]; first compound 1.265 µM) was 0.316. For the same compound, the relative viability ([14]; first compound 4 µM) was 0.168, the relative viability ([15]; first compound 0.04 µM) was 0.615 and the relative viability ([15]; first compound 0.1265 µM) was 0.521. It also gave a relative viability ([15]; first compound 0.4 µM) of 0.463, a relative viability ([15]; first compound 1.265 µM) of 0.282 and a relative viability ([15]; first compound 4 µM) of 0.259. For the same compound, the relative viability ([16]; first compound 0.04 µM) was 0.662, the relative viability ([16]; first compound 0.1265 µM) was 0.628 and the relative viability ([16]; first compound 0.4 µM) was 0.533. The relative viability ([16]; first compound 1.265 µM) was 0.161, the relative viability ([16]; first compound 4 µM) was 0.134 and the relative viability ([17]; first compound 0.04 µM) was 0.984. It also gave a relative viability ([17]; first compound 0.1265 µM) of 0.71, a relative viability ([17]; first compound 0.4 µM) of 0.737 and a relative viability ([17]; first compound 1.265 µM) of 0.497. The relative viability ([17]; first compound 4 µM) was 0.368, the relative viability ([18]; first compound 0.04 µM) was 0.615 and the relative viability ([18]; first compound 0.1265 µM) was 0.373. The relative viability ([18]; first compound 0.4 µM) was 0.406, the relative viability ([18]; first compound 1.265 µM) was 0.0648 and the relative viability ([18]; first compound 4 µM) was 0.062. The relative viability ([19]; first compound 0.04 µM) was 0.703, the relative viability ([19]; first compound 0.1265 µM) was 0.322 and the relative viability ([19]; first compound 0.4 µM) was 0.488. The relative viability ([19]; first compound 1.265 µM) was 0.277, the relative viability ([19]; first compound 4 µM) was 0.319 and the relative viability ([20]; first compound 0.04 µM) was 1.1. The relative viability ([20]; first compound 0.1265 µM) was 0.813, the relative viability ([20]; first compound 0.4 µM) was 0.464 and the relative viability ([20]; first compound 1.265 µM) was 0.32. For the same compound, the relative viability ([20]; first compound 4 µM) was 0.273, the relative viability ([21]; first compound 0.04 µM) was 0.326 and the relative viability ([21]; first compound 0.1265 µM) was 0.317. For the same compound, the relative viability ([21]; first compound 0.4 µM) was 0.223, the relative viability ([21]; first compound 1.265 µM) was 0.141 and the relative viability ([21]; first compound 4 µM) was 0.165.
